Measurements taken from the kinase profiling compilation of Christmann-Franck et al. (2016).

Experiments:
Assay in all cases: radiometric filter-binding kinase assay, Kinase HotSpot
Conditions in all cases: compound 0.5 µM; ATP 10 µM
TEC (human) = TEC (human) (UniProt P42680)
CDK1 CCNA2 (human) = CDK1 CCNA2 (human) (UniProt P06493+P20248)
MAPK1 (human) = MAPK1 (human) (UniProt P28482)
PRKACA (human) = PRKACA (human) (UniProt P17612)
GRK4 (human) = GRK4 (human) (UniProt P32298)
MLTK (human) = MLTK (human) (UniProt Q9NYL2)
PRKCB2 (human) = PRKCB2 (human) (UniProt P05771)
CDK4 CCND1 (human) = CDK4 CCND1 (human) (UniProt P24385+P11802)
ULK1 (human) = ULK1 (human) (UniProt O75385)
BRSK2 (human) = BRSK2 (human) (UniProt Q8IWQ3)
CDK2 CCNE1 (human) = CDK2 CCNE1 (human) (UniProt P24941+P24864)
WNK2 (human) = WNK2 (human) (UniProt Q9Y3S1)
FLT1 (human) = FLT1 (human) (UniProt P17948)
CDC42BPB (human) = CDC42BPB (human) (UniProt Q9Y5S2)
CSK (human) = CSK (human) (UniProt P41240)
MAP3K3 (human) = MAP3K3 (human) (UniProt Q99759)
HIPK1 (human) = HIPK1 (human) (UniProt Q86Z02)
CHEK1 (human) = CHEK1 (human) (UniProt O14757)
ROS1 (human) = ROS1 (human) (UniProt P08922)
AKT2 (human) = AKT2 (human) (UniProt P31751)
KDR (human) = KDR (human) (UniProt P35968)
AURKC (human) = AURKC (human) (UniProt Q9UQB9)
ITK (human) = ITK (human) (UniProt Q08881)
JAK2 JH1 JH2 (human) = JAK2 JH1 JH2 (human) (UniProt O60674)
MAP3K14 (human) = MAP3K14 (human) (UniProt Q99558)
PHKG2 (human) = PHKG2 (human) (UniProt P15735)
MAPKAPK2 (human) = MAPKAPK2 (human) (UniProt P49137)
ULK2 (human) = ULK2 (human) (UniProt Q8IYT8)
MAP3K8 (human) = MAP3K8 (human) (UniProt P41279)
GRK7 (human) = GRK7 (human) (UniProt Q8WTQ7)
STK24 (human) = STK24 (human) (UniProt Q9Y6E0)
MAPK8 (human) = MAPK8 (human) (UniProt P45983)
ADRBK1 (human) = ADRBK1 (human) (UniProt P25098)
NEK9 (human) = NEK9 (human) (UniProt Q8TD19)
OXSR1 (human) = OXSR1 (human) (UniProt O95747)
HIPK3 (human) = HIPK3 (human) (UniProt Q9H422)
GSK3B (human) = GSK3B (human) (UniProt P49841)
IKBKB (human) = IKBKB (human) (UniProt O14920)
TAOK3 (human) = TAOK3 (human) (UniProt Q9H2K8)
TEK (human) = TEK (human) (UniProt Q02763)
STK17A (human) = STK17A (human) (UniProt Q9UEE5)
CAMK2G (human) = CAMK2G (human) (UniProt Q13555)

FLT1 (human), sequence (P17948 whole entry, looked up): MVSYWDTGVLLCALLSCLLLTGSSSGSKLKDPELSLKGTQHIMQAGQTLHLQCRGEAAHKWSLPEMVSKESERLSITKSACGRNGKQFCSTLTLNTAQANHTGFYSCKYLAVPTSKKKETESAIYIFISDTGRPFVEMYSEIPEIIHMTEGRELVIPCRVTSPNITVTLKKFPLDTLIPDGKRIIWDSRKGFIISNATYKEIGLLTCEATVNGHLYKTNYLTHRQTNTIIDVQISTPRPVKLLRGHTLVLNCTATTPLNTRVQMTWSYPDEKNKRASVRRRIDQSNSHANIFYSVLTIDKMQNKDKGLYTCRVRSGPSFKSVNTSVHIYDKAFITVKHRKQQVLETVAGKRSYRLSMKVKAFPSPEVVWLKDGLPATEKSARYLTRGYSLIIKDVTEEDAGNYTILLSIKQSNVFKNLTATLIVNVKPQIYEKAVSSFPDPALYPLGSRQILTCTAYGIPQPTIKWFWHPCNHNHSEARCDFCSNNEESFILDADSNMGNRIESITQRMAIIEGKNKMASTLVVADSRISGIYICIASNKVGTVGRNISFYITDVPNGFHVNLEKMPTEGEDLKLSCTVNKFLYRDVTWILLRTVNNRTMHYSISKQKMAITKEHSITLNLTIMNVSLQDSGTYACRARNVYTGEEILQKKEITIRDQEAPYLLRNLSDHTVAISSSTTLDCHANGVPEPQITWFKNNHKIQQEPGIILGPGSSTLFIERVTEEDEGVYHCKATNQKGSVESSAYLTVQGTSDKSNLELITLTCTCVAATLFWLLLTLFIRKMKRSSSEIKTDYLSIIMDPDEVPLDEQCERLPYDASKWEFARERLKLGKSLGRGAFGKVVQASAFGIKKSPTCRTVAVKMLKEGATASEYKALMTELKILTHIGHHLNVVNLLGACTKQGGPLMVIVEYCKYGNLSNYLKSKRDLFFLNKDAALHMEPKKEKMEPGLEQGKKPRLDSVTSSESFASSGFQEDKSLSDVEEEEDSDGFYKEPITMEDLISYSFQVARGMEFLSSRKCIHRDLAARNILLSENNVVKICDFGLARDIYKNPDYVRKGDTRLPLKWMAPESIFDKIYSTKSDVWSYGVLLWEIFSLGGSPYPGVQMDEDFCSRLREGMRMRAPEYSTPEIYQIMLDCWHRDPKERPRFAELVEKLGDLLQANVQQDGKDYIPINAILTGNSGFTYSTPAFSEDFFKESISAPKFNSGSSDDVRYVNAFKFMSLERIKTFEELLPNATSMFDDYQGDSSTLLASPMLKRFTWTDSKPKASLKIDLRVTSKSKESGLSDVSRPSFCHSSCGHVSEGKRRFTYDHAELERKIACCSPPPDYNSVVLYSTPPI
TEC (human), sequence (P42680 whole entry, looked up): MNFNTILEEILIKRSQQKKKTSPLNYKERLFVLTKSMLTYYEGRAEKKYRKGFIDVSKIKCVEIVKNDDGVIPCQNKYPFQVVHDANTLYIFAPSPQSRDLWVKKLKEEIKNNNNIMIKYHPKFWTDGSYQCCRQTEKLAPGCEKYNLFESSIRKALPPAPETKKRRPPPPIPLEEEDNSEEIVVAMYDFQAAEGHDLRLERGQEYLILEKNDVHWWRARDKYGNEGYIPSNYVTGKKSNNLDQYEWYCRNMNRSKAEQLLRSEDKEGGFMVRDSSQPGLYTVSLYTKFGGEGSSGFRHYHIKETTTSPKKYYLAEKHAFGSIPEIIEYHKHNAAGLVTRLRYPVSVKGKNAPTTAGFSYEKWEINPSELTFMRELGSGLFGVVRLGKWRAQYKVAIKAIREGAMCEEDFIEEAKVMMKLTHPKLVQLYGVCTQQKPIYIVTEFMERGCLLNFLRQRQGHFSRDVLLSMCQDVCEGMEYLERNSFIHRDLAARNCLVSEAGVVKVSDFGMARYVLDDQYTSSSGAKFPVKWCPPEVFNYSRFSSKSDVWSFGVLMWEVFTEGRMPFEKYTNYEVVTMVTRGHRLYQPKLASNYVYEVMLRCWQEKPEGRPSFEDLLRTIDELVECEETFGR
NEK9 (human), sequence (Q8TD19 whole entry, looked up): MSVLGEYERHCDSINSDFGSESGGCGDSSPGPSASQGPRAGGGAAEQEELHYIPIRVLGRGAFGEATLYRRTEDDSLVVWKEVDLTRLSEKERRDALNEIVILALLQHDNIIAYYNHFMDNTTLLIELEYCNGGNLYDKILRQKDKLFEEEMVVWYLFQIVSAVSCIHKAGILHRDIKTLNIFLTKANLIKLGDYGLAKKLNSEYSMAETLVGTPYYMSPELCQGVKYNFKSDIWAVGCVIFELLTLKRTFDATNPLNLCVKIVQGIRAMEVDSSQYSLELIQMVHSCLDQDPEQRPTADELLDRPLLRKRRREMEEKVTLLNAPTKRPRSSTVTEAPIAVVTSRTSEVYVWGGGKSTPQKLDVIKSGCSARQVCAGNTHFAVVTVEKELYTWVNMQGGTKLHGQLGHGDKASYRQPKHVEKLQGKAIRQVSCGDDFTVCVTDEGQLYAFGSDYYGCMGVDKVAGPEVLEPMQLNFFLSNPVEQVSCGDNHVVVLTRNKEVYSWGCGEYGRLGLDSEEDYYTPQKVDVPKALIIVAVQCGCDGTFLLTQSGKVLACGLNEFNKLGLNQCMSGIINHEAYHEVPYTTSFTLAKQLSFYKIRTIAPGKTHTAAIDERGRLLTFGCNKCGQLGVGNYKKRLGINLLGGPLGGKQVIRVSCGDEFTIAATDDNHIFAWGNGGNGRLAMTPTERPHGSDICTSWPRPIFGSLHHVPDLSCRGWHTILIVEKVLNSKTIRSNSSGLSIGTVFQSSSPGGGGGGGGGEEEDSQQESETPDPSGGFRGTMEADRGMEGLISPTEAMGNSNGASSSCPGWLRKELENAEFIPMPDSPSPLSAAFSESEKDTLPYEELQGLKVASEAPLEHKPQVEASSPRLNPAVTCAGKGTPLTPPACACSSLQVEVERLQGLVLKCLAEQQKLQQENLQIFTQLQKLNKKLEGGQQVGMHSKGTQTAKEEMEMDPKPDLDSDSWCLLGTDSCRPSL
ITK (human), sequence (Q08881 whole entry, looked up): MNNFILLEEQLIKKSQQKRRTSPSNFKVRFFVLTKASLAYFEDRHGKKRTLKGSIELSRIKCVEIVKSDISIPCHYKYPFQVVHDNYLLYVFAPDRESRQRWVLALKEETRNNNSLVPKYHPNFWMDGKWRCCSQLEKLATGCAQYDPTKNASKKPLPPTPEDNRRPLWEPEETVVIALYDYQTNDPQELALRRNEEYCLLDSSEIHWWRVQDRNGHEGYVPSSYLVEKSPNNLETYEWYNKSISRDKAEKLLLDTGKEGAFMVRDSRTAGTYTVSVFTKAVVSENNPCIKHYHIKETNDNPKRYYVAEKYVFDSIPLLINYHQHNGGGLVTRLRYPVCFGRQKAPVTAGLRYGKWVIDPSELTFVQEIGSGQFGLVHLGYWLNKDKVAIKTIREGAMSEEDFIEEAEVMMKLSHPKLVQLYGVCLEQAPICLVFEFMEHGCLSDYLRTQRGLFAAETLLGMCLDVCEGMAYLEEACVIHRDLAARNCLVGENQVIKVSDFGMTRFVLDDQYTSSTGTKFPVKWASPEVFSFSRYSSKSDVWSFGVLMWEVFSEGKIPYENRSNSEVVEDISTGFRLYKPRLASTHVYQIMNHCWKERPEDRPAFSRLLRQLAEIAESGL
AKT2 (human), sequence (P31751 whole entry, looked up): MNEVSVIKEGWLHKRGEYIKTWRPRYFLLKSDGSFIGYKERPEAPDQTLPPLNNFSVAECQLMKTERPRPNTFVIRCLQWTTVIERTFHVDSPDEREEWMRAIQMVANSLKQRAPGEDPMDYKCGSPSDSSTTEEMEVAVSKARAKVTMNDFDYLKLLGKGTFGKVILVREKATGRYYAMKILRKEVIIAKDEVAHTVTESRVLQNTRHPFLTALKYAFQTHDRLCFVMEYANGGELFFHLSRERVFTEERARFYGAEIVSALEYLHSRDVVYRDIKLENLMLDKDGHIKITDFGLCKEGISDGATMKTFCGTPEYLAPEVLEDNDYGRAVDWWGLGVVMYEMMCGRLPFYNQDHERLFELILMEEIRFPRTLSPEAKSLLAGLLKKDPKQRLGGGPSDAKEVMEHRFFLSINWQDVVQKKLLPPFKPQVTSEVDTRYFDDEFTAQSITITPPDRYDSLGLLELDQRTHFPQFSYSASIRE
ULK2 (human), sequence (Q8IYT8 whole entry, looked up): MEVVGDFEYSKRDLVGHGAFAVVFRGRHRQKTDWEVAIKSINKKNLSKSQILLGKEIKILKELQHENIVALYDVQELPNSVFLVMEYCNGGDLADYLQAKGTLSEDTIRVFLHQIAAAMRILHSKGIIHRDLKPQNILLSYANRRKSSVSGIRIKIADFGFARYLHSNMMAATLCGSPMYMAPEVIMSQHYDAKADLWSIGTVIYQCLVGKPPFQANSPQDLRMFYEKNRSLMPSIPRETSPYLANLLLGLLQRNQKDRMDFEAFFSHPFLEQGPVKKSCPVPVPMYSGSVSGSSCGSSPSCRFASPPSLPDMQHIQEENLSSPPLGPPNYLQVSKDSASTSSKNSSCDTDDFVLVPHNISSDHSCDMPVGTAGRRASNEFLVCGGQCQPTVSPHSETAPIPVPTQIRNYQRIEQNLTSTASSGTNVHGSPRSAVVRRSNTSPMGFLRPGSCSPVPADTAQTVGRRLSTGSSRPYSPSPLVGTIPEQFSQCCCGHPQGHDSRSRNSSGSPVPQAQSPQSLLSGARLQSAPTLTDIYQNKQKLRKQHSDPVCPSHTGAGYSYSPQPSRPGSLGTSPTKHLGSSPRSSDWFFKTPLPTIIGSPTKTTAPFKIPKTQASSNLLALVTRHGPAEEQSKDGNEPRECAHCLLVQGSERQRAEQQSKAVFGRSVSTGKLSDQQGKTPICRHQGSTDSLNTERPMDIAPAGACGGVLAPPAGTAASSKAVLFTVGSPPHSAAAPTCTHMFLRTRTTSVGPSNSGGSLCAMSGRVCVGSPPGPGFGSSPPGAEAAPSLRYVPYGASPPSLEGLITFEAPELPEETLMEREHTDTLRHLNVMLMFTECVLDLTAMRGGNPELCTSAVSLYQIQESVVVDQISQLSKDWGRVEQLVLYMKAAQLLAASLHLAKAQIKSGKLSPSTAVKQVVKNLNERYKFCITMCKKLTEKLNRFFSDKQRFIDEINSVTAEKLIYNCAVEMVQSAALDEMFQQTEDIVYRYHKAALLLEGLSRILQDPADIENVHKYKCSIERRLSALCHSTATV

`COc1cc2c(N3CCN(C(=O)Nc4ccc(OC(C)C)cc4)CC3)ncnc2cc1OCCCN1CCCCC1` showed a residual activity (TEC (human)) of 89%, a residual activity (CDK1 CCNA2 (human)) of 96% and a residual activity (MAPK1 (human)) of 87%. The residual activity (PRKACA (human)) was 103%, the residual activity (GRK4 (human)) was 106% and the residual activity (MLTK (human)) was 99.7%. It also gave a residual activity (PRKCB2 (human)) of 93.1%, a residual activity (CDK4 CCND1 (human)) of 92.5% and a residual activity (ULK1 (human)) of 92.1%. For the same compound, the residual activity (BRSK2 (human)) was 98.6%, the residual activity (CDK2 CCNE1 (human)) was 96.7% and the residual activity (WNK2 (human)) was 97.4%. For the same compound, the residual activity (FLT1 (human)) was 99.4%, the residual activity (CDC42BPB (human)) was 100% and the residual activity (CSK (human)) was 99.3%. For the same compound, the residual activity (MAP3K3 (human)) was 106%, the residual activity (HIPK1 (human)) was 98.9% and the residual activity (CHEK1 (human)) was 108%. It also gave a residual activity (ROS1 (human)) of 90.1%, a residual activity (AKT2 (human)) of 97.9% and a residual activity (KDR (human)) of 106%. It also gave a residual activity (AURKC (human)) of 97%, a residual activity (ITK (human)) of 99% and a residual activity (JAK2 JH1 JH2 (human)) of 101%. It also gave a residual activity (MAP3K14 (human)) of 98.6%, a residual activity (PHKG2 (human)) of 98.9% and a residual activity (MAPKAPK2 (human)) of 100%. It also gave a residual activity (ULK2 (human)) of 100%, a residual activity (MAP3K8 (human)) of 93.2% and a residual activity (GRK7 (human)) of 104%. For the same compound, the residual activity (STK24 (human)) was 102%, the residual activity (MAPK8 (human)) was 105% and the residual activity (ADRBK1 (human)) was 98%. For the same compound, the residual activity (NEK9 (human)) was 97.2%, the residual activity (OXSR1 (human)) was 95.8% and the residual activity (HIPK3 (human)) was 101%. For the same compound, the residual activity (GSK3B (human)) was 98.1%, the residual activity (IKBKB (human)) was 97.3% and the residual activity (TAOK3 (human)) was 96.8%. The residual activity (TEK (human)) was 99.6%, the residual activity (STK17A (human)) was 103% and the residual activity (CAMK2G (human)) was 101%.
